In patent publication US20230074252A1, “DOSAGES AND METHODS FOR TREATING PULMONARY ARTERIAL HYPERTENSION WITH RODATRISTAT” (Altavant Sciences GmbH, priority 2020, published 2023):

Experiments:
[1] = biological target: CYP2C9 (Homo sapiens, UniProt P11712); assay: FDA guidance DDI risk assessment, perpetrator potential; set-up: from tissue; host or cells: pooled human liver microsomes (n=200 donors); conditions: predicted @ 600 mg BID
Experimental: (§1) The potential for rodatristat ethyl or rodatristat to be perpetrators of drug-drug interactions was assessed across in vitro CYP and transporter studies (Tables 1-4). […] This analysis was performed to assess the potential for clinically meaningful DDIs as recommended in FDA Draft Guidance: “In Vitro Metabolism- and Transporter-Mediated Drug-Drug Interaction Studies Guidance for Industry”; October 2017 (FDA, 2017).
(§2) R1 and R3 values using free (non-protein bound) drug levels were calculated based on plasma protein binding (fraction bound, fb) of rodatristat ethyl (0.995) and rodatristat (0.991). The FDA Guidance is set forth In Vitro Metabolism- and Transporter-Mediated Drug-Drug Interaction Studies Guidance for Industry (2017). […] Parameters for the prediction are set forth below in Tables 5 and 6.

[2] = biological target: T1, CYP2B6 (Homo sapiens, UniProt P20813); assay: as above; set-up: from tissue; host or cells: pooled human liver microsomes (n=200 donors); conditions: predicted @ 600 mg BID
T1 sequence (P20813 1-491): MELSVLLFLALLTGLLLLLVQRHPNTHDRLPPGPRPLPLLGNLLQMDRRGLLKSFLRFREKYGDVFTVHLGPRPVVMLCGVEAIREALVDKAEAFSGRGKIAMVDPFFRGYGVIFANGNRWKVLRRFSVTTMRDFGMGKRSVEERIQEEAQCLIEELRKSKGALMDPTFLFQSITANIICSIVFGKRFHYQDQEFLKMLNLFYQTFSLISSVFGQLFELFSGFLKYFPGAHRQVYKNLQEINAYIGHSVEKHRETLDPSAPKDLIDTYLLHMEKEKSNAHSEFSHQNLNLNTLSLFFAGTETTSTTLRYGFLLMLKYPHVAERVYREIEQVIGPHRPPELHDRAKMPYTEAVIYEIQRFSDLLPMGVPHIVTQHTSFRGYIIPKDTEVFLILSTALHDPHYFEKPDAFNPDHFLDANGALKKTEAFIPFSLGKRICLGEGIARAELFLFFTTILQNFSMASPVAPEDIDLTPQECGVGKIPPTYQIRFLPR
Experimental: as §1, §2

[3] = biological target: T2, CYP2C8 (Homo sapiens, UniProt P10632); assay: as above; set-up: from tissue; host or cells: pooled human liver microsomes (n=200 donors); conditions: for Potential for interaction (perpetrator), CYP2C8: predicted @ 600 mg BID
T2 sequence (P10632 1-490): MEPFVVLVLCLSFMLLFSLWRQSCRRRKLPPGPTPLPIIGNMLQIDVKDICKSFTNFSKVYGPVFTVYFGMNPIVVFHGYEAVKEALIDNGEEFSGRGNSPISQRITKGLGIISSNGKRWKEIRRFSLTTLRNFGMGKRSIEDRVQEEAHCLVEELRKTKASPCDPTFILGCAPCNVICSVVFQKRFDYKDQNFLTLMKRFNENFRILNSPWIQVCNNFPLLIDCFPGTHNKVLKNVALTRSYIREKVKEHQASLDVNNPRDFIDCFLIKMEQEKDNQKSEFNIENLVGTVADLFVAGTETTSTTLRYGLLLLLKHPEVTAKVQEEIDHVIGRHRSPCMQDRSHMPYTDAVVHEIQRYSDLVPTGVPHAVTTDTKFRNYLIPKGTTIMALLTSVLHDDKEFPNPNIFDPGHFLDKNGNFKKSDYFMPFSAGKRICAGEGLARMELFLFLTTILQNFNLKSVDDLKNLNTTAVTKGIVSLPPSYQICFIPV
Experimental: as §1, §2

[4] = biological target: T3, CYP1A2 (Homo sapiens, UniProt P05177); assay: as above; set-up: from tissue; host or cells: pooled human liver microsomes (n=200 donors); conditions: predicted @ 600 mg BID
T3 sequence (P05177 1-516): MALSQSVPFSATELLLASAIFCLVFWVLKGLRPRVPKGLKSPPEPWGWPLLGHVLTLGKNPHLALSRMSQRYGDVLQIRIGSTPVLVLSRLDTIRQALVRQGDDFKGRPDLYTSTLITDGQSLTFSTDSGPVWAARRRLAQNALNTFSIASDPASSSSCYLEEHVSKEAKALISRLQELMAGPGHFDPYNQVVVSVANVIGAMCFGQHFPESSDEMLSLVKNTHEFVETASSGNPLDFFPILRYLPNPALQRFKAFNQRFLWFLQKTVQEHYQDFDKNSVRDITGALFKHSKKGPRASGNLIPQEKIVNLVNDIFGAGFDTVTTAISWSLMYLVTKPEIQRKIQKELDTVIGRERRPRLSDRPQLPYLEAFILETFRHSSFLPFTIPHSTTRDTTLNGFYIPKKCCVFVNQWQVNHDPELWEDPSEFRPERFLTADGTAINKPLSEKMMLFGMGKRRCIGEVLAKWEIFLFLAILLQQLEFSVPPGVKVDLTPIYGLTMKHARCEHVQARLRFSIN
Experimental: as §1, §2

[5] = biological target: T4, CYP2D6 (Homo sapiens, UniProt P10635); assay: as above; set-up: from tissue; host or cells: pooled human liver microsomes (n=200 donors); conditions: predicted @ 600 mg BID
Experimental: as §1, §2

[6] = biological target: CYP2C19 (Homo sapiens, UniProt P33261); assay: as above; set-up: from tissue; host or cells: pooled human liver microsomes (n=200 donors); conditions: predicted @ 600 mg BID
Experimental: as §1, §2

[7] = biological target: T4, CYP2D6; assay: In vitro CYP substrate assessment (victim potential); format: in vitro ADME
[8] = biological target: T5, P-gp (Homo sapiens, UniProt P08183); assay: Transporter inhibition, Caco-2 cells, digoxin probe; format: in vitro ADME; conditions: for Potential for interaction? (transporter inhibitor), P-gp: predicted @ 600 mg BID
T5 construct: endogenous in cells; host or cells: Caco-2
Experimental: The competitive inhibition of specific transporters was investigated for RVT-1201 and KAR5417 in transporter-expressing in vitro systems (XT158039). Inhibition of P-gp was evaluated using a Caco-2 cell line with digoxin as probe substrate. Inhibition of OATP1B1 and OATP1B3 was evaluated using a HEK293 cell line expressing these transporters with estradiol-17β-glucuronide as probe substrate. In addition, inhibition of other transporters was also investigated (BCRP, OAT1, OAT3, OCT2, MATE1, MATE2-K). The IC50 estimates for P-gp (RVT-1201) and OATP1B1/3 (RVT-1201 and KAR5417) supported further evaluation of inhibition DDI potential using the PBPK model. For each IC50 estimate, substrate concentration and Km were used to estimate RVT-1201 and KAR5417 Ki with Equation 1 (Cheng and Prusoff, 1973).

T4 sequence (P10635 whole entry): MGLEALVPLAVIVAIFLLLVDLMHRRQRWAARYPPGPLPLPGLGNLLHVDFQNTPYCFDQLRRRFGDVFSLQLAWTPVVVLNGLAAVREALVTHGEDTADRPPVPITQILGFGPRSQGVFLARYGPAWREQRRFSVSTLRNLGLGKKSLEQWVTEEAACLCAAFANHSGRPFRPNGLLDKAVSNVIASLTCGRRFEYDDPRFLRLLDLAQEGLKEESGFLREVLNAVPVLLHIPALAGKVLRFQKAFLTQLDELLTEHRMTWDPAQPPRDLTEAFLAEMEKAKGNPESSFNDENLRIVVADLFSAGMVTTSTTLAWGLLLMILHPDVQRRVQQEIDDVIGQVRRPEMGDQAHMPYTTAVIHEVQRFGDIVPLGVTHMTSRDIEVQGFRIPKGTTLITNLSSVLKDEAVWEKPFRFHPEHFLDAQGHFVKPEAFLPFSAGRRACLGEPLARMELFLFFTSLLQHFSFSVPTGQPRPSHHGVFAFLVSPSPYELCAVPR
T5 sequence (P08183 whole entry): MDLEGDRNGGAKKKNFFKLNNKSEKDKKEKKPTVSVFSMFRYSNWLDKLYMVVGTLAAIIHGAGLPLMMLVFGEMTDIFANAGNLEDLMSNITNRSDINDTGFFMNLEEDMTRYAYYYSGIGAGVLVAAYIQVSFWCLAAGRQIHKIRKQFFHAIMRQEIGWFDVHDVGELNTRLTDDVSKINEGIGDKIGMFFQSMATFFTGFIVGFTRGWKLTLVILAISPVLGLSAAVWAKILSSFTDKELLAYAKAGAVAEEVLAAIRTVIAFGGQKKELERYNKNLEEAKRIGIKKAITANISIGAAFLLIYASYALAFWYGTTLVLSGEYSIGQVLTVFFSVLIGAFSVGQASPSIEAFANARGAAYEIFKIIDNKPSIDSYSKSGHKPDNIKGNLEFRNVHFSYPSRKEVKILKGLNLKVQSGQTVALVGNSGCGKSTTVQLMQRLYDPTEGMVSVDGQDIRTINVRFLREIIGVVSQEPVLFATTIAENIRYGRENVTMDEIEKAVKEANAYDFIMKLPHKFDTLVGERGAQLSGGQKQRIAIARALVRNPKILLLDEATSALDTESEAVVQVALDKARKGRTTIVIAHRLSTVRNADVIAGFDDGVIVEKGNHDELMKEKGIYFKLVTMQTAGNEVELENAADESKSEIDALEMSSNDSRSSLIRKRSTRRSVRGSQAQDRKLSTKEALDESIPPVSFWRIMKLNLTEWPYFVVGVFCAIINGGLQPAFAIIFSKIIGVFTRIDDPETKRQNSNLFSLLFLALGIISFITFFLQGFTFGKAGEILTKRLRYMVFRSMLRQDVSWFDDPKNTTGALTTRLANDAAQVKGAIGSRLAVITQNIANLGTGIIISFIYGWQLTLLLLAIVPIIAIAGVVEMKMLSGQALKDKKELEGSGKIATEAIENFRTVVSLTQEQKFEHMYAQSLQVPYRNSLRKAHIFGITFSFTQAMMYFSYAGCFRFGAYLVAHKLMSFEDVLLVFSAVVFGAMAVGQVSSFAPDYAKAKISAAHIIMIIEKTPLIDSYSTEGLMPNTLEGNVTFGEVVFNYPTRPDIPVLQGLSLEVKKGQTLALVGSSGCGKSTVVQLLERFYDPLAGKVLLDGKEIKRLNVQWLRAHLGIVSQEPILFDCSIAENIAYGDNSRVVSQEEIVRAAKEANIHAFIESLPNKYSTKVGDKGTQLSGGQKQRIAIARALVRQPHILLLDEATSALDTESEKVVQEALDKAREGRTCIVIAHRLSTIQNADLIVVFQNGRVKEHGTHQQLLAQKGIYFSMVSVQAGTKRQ
Chain of CYP2C9 (P11712 whole entry): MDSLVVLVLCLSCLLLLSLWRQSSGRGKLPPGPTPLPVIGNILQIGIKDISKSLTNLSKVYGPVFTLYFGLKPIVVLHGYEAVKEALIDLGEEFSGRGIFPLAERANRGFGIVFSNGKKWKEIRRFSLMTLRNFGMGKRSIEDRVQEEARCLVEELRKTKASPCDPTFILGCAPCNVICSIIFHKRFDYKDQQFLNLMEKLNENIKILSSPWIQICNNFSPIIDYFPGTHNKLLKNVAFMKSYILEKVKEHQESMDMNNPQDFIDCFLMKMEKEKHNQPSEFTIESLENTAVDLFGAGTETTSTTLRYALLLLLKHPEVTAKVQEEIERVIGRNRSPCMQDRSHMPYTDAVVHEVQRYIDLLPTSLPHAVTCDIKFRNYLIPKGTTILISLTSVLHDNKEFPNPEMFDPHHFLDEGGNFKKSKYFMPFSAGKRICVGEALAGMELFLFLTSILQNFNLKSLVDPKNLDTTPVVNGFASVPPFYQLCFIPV
Chain of CYP2C19 (P33261 whole entry): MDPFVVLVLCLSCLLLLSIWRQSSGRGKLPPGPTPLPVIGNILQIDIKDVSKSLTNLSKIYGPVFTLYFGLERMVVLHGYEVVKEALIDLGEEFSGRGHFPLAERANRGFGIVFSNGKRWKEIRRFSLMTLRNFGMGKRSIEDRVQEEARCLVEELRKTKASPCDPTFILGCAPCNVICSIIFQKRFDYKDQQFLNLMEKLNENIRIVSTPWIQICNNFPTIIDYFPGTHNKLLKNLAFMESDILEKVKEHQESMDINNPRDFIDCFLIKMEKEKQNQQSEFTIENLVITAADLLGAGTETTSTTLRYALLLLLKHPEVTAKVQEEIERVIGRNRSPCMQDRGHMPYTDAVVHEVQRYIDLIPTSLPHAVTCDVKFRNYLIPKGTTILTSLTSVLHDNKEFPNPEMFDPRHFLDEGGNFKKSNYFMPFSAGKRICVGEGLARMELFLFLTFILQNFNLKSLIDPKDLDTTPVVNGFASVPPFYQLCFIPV

Row | SMILES | Potential for interaction (perpetrator), CYP2C9 [1] | Potential for interaction (perpetrator), CYP2B6 [2] | Potential for interaction (perpetrator), CYP2C8 [3] | Potential for interaction (perpetrator), CYP1A2 [4] | Potential for interaction (perpetrator), CYP2D6 [5] | Potential for interaction (perpetrator), CYP2C19 [6] | In vitro substrate? CYP2D6 [7] | IC50 ([8]; Caco 2 cells, read-out: In vitro IC50, P-gp) | Potential for interaction? (transporter inhibitor), P-gp [8] | Ratio of unbound Cmax to Ki, CYP2C8 ([3]; 600 mg BID) | Inhibition of P-gp (in words) [8]
1 | CCOC(=O)[C@@H]1CC2(CCN(c3cc(O[C@H](c4ccc(Cl)cc4-c4ccccc4)C(F)(F)F)nc(N)n3)CC2)CN1 [Rodatristat ethyl, (S)-ethyl 8-(2-amino-6-((R)-1-(5-chloro-[1,1′-biphenyl]-2-yl)-2,2,2-trifluoroethoxy)pyrimidin-4-yl)-2,8-diazaspiro[4.5]decane-3-carboxylate] | No | Yes | No | No | No | No | No | 3.32 µM | Yes |  | 
2 | Nc1nc(O[C@H](c2ccc(Cl)cc2-c2ccccc2)C(F)(F)F)cc(N2CCC3(CC2)CN[C@H](C(=O)O)C3)n1 [Rodatristat, (S)-8-(2-amino-6-((R)-1-(5-chloro-[1,1′-biphenyl]-2-yl)-2,2,2-trifluoroeth-oxy)pyrimidin-4-yl)-2,8-diazaspiro[4.5]decane-3-carboxylic acid] | No | Yes | No | No | No | No | No |  | No | 0.014 | not an inhibitor
